# In patent publication US20230218566A1, “Composition and Method for Treating Chronic Pain” (Zelira Therapeutics Operations Pty Ltd, priority 2020, published 2023):
# Assay: Pharmacokinetics of THC and CBD after oral MC formulation (Example 3)
# Conditions: for Tmax / AUC(0-t) / Cmax / half-life: human, plasma; for dose response of Cmax and AUC0-8 with increasing doses: oral doses 2.5 to 12.5 mg
# [1] = high fat meal 30 minutes before 2.5 mg dose versus fasted
# [2] = oral, delay of Tmax by high fat meal, high fat meal 30 minutes before 2.5 mg dose versus fasted
# [3] = po, AUC0-8, 2.5 mg: single oral dose 2.5 mg THC/2.5 mg CBD after 12 hour fast (day 1)
# [4] = po, AUC0-8, 5 mg: single oral dose 5 mg THC/5 mg CBD
# [5] = po, AUC0-8, 7.5 mg: single oral dose 7.5 mg THC/7.5 mg CBD
# [6] = po, 2.5 mg fed: single oral dose 2.5 mg THC/2.5 mg CBD 30 minutes after high fat meal (day 8)
# [7] = po, 2.5 mg: single oral dose 2.5 mg THC/2.5 mg CBD after 12 hour fast (day 1)
# [8] = po, 5 mg: single oral dose 5 mg THC/5 mg CBD
# [9] = po, 7.5 mg: single oral dose 7.5 mg THC/7.5 mg CBD
# [10] = po, Tmax, 2.5 mg fed: single oral dose 2.5 mg THC/2.5 mg CBD 30 minutes after high fat meal (day 8)
# [11] = po, Tmax, 2.5 mg: single oral dose 2.5 mg THC/2.5 mg CBD after 12 hour fast (day 1)
# [12] = po, Tmax, 5 mg: single oral dose 5 mg THC/5 mg CBD
# [13] = po, Tmax, 7.5 mg: single oral dose 7.5 mg THC/7.5 mg CBD
# [14] = po, t½ (did not change with increasing dose), across doses 2.5 to 12.5 mg
# [15] = po, t½, 2.5 mg fed: single oral dose 2.5 mg THC/2.5 mg CBD 30 minutes after high fat meal (day 8)
# [16] = po, t½, 2.5 mg: single oral dose 2.5 mg THC/2.5 mg CBD after 12 hour fast (day 1)
# [17] = po, t½, 5 mg: single oral dose 5 mg THC/5 mg CBD
# [18] = po, t½, 7.5 mg: single oral dose 7.5 mg THC/7.5 mg CBD
Compound,effect of high fat meal on Cmax and AUC0-8 [1],Tmax [2] [h],AUC(0-t) [3] [ng·h/mL],AUC(0-t) [4] [ng·h/mL],AUC(0-t) [5] [ng·h/mL],Cmax [6] [ng/mL],Cmax [7] [ng/mL],Cmax [8] [ng/mL],Cmax [9] [ng/mL],Tmax [10] [h],Tmax [11] [h],Tmax [12] [h],Tmax [13] [h],half-life [14] [h],half-life [15] [h],half-life [16] [h],half-life [17] [h],half-life [18] [h],dose response of Cmax and AUC0-8 with increasing doses,other results
"C=C(C)[C@@H]1CCC(C)=C[C@H]1c1c(O)cc(CCCCC)cc1O [CBD, cannabidiol]",significantly increased,≥ 1,1.76 ± 0.84,5.09 ± 1.8,7.47 ± 2.95,0.99 ± 0.45,0.62 ± 0.19,1.51 ± 0.55,2.26 ± 0.95,2.78,1.83 ± 1,1.75 ± 1.04,1.64 ± 1.18,3.6,2.95 ± 0.66,4.25 ± 0.54,4.54 ± 2.41,3.47 ± 0.86,linear dose response relationship,"AUC(0-t) (po, AUC0-8, 2.5 mg fed: single oral dose 2.5 mg THC/2.5 mg CBD 30 minutes after high fat meal (day 8)): 3.67 ng·h/mL"
"CCCCCc1cc(O)c2c(c1)OC(C)(C)[C@@H]1CCC(C)=C[C@@H]21 [THC, Δ^9-tetrahydrocannabinol]",significantly increased,≥ 1,2 ± 1.38,6.04 ± 2.07,10.6 ± 3.84,1.52 ± 0.55,0.83 ± 0.29,2.56 ± 1.7,3.84 ± 1.62,2.78 ± 1.2,1.67 ± 1.09,2.06 ± 1.32,1.36 ± 0.63,2.5,2.63 ± 0.43,2.6 ± 0.53,2.47 ± 0.88,2.41 ± 0.62,linear dose response relationship,AUC0-8 (2.5 mg fed: single oral dose 2.5 mg THC/2.5 mg CBD 30 minutes after high fat meal (day 8)): 5.86 ± 2.07 (9) ng/mL*h
